Reference: US10272144B2, “Compositions for and methods of treating and preventing targeting tumor associated carbohydrate antigens” (Board of Trustees of the University of Arkansas, priority 2013, dated 2019)
Values joined by “and” are separate entries in the source; they are usually repeats but may differ in a detail not shown here. Equal values may be shown once. “Also recorded” adds a separate entry of the source.

What was measured:
[1] = tested on: multiple-antigen peptide (MAP) version of P10s; experiment: ELISA of anti-P10s antibodies in sera/plasma of vaccinated subjects; format: in vivo, human; settings: for Immunized plasma binding to MAP (ELISA): one line per subject
Method: IgM and IgG fractions of serum antibodies from the immunized patient bind to MAP form of P10s in ELISA assays. ELISA plates were coated with 1 μg/well of the P10s MAP peptide in carbonate-bicarbonate buffer overnight. Serial dilutions were added after blocking wells in PBS containing 0.5% FBS and 0.2% Tween 20 for 1 h at 37° C. Serum dilutions were incubated for two hours at 37° C. After washing, wells were incubated with HRP-conjugated mouse anti-human IgM and IgG for 1 hour at 37° C., then substrate was added and the reaction was stopped after 20 minutes. Plates were read by an ELISA reader at […]. Titers were estimated from absorbance-versus-dilution curves by linear regression. The intercept of the regression line for each subject's pre-immune serum was defined as the absorbance cutoff for determining end-point titer for that subject, and the dilution where each sample's regression line crossed the subject's absorbance cutoff was defined to be the sample's end-point titer. Extrapolation beyond one dilution below the minimum or above the maximum actual dilutions was not allowed. This procedure normalized each subject's pre-immune titer to be 1:100, and subjects with a 10-fold or greater increase in end-point titer over the 1:100 titer are considered responders.
ELISA plates were coated with MAP version of P10s and reactivity of two-fold serial dilutions of pre- and post-immune sera was detected by HRP-conjugated anti-human IgG (FIG. 7A) and IgM (FIG. 7B). The endpoint titers shown in FIG. 7A and FIG. 7B were estimated from absorbance-versus-dilution curves by linear regression. The intercept of the regression line for each subject's pre-immune serum was the value used as the absorbance cutoff for determining end-point titer for that subject, and the dilution where each sample's regression line crossed the subject's absorbance cutoff was defined to be the sample's end-point titer. Extrapolation beyond one dilution below the minimum or above the maximum actual dilutions was not allowed. This procedure normalized each subject's pre-immune titer to be 1:100.
The presence of anti-P10s antibodies in the sera of patients before and after vaccination was assessed with ELISA. ELISA plates were coated with 1 μg/well of the multiple-antigen peptide (MAP) version of P10s in carbonate-bicarbonate buffer (Sigma-Aldrich, St. Louis, Mo.) overnight. Serial 2-fold dilutions of plasma and serum samples, from 1:100 (dilution step 0) to a final dilution of 1:12800 (dilution step 7), were added after blocking wells with PBS containing 0.5% FBS and 0.2% Tween 20 (Blocking buffer) for 1 h at 37° C. Serum dilutions in blocking buffer were incubated for two hours at 37° C. After washing, wells were incubated with HRP-conjugated mouse anti-human IgM and IgG (Sigma-Aldrich) for 1 hour at 37° C. Then Tetramethylbenzidine substrate (Sigma-Aldrich) was added and the reaction was stopped after 20 minutes. Plates were read using an ELISA reader at […].
The resulting absorbance-versus-dilution curves were used to estimate normalized endpoint titers as follows. (1) A linear regression of absorbance versus dilution step was performed on the serial dilutions of each sample from each subject, in which dilution steps were numbered as described above. (2) The intercept of the regression line for each subject's pre-immune sample was the value used as the absorbance cutoff for determining the endpoint titers of all samples collected from that subject. (3) The dilution step where each sample's regression line crossed the subject's absorbance cutoff was determined and called X(c), and the normalized endpoint titer was estimated from X(c) as Titer=1:(100*2^X(c)). This procedure normalized each subject's pre-immune titer to be 1:100. […]

MCF-10A cells = experiment: Cytotoxicity of plasma on MCF-10A; format: cell-based, human; settings: 10% plasma, 24 hours (up to 72 hours); non-tumorigenic line; FIG. 12
Method: Pictures were taken after 24 hours of incubation with 10% plasma of the indicated subjects.
(§1) Medium in control wells contained 10% FBS.

MCF-7 cells = experiment: Toxicity against MCF-7 cells; format: cell-based, human; settings: other experiments
ZR-75-1 cells = experiment: Toxicity against ZR-75-1 cells; format: cell-based, human; settings: other experiments
[2] = tested on: cancer cells (HCC1954 and MDA-MB-231); experiment: Immunized plasma toxicity on cancer cells (both cell lines); format: cell-based, human; settings: one line per subject
From the text: as §1

MDA-MB-231 cells [3] = experiment: Sensitization of tumor cells to docetaxel toxicity by post-immune serum; format: cell-based, human; settings: 5 hours pre-incubation, docetaxel 24 hours; IC50 differs from FBS and pre-immune (P 6.21E-08, 0.002); FIG. 9
Method: MDA-MB-231 cells were cultured in RPMI medium containing 10% FBS overnight. Medium was then replaced with one that contained either pre-immune serum or post-immune serum. FBS was used as control. After 5 hours of incubation, docetaxel was added in serial dilutions into wells. 24 hours later wells were washed and live cells were fixed, stained and counted. Percentage of survival was calculated as the ratio of cell number at a given drug dose to the cell number at the “0” drug dose. Prism 5 software was used to fit dose response curves using survival data. IC50 of each curve was calculated.
MDA-MB-231 cells were cultured in RPMI medium containing 10% FBS overnight. Medium was then replaced with one that contained pre or post-immune sera. FBS was used as control. After 5 hours of incubation docetaxel was added in serial dilutions into wells. 24 hours later wells were washed and live cells were fixed, stained and counted. Percentage of survival was calculated as the ratio of cell number at a given drug dose to the cell number at the “0” drug dose. Prism 5 software was used to fit dose response curves using survival data. IC50 of each curve was calculated.

HCC1954 cells [4] = experiment: Binding of serum IgG to HCC1954 cells (flow cytometry); format: cell-based, human; settings: week 7 serum, 1:100 dilution; FIG. 14A
Method: (§2) HCC1954 cells were harvested with enzyme-free buffer, washed and incubated with pre-immune sera or post-immune sera collected from the patient at Week 7. Binding of IgG antibodies in the sera to HCC1954 cells was visualized with an FITC-conjugated mouse anti-human IgG. […] The dashed line histogram show binding of IgG from pre-immune serum to HCC1954 cells. The solid line histogram show binding of IgG from post-immune serum collected at week 7 to HCC1954 cells. 1:100 dilution of the serum was used for reactivity. FIG. 14B is a bar graph showing that serum from the patient collected 7 weeks post-immunization kills HCC1954 breast cancer cells in vitro. 1×10^4 cells were seeded in wells of 96-well plate in medium containing 10% FBS. […] Medium in control wells contained 10% FBS. Media were refreshed after 24 hours. 48 hours after addition of sera, supernatants were removed, cells fixed and stained with Crystal violet. Percentage of cytotoxicity was calculated based on cell number in control wells. Error bars represent SD based on three replications. The experiment was repeated three times. Two tail Student's t-test was used for comparison of means.

HCC1954 cells [5] = experiment: Serum cytotoxicity on HCC1954 cells (Example 5 patient); format: cell-based, human; settings: week 7 serum, 10%, 48 hours; FIG. 14B
Method: as §2

HCC1954 cells [6] = experiment: Inhibition of migration of HCC1954 cells (transwell); format: cell-based, human; settings: week 7 serum, 20 hours in transwells; FIG. 15
Method: Cells were starved overnight and then harvested and mixed with either pre-immune serum or postimmune serum. The cell-serum mixtures were incubated in transwells for 20 hours. The cells were then stained and those on the surface were wiped out. Migrated cells were then visualized under a light microscope and counted. Average over three replications with SD are shown.

MDA-MB-231 cells [7] = experiment: Apoptosis induction (annexin V/propidium iodide); format: cell-based, human; settings: overnight incubation with sera; FIG. 16
Method: Cells were incubated with 10% FBS (control) or either pre-immune or post-immune sera overnight and then harvested and stained with annexin V-FITC (FL1) and propidium iodide (FL3). Quadrants J4, P4 and Q4 show apoptotic cells in control, pre-immune serum treated and post-immune serum treated cells, respectively.

[8] = tested on: stage IV breast cancer patients; experiment: Phase I trial: clinical response (disease progression); format: in vivo, human; settings: one line per subject, concurrent chemotherapy
From the text: The P10s-PADRE vaccine was developed for, inter alia, treatment of breast cancer patients with high risk of disease relapse. In the Phase I trial, research participants were restricted to females with histological or cytological confirmed stage IV breast cancer. Women 18 years of age or older, of all races, with histologically or cytologically confirmed stage IV breast cancer were eligible, and subjects were enrolled after providing written, informed consent. Disease staging was done according to the American Joint Commission on Cancer (AJCC), sixth edition. The following eligibility criteria were used: The cancer may have been newly diagnosed metastatic or relapsed after primary or adjuvant therapy and must not have required a treatment change for 2 months. Treatments with anti-estrogen therapy or chemotherapy were allowed. The chemotherapy regimen could not contain steroids in the pre- or post-supportive-care medications. […] Subjects had to be immunocompetent as measured by responsiveness to two recall antigens by skin testing. […]

NK cells [9] = experiment: NK cell activation in vaccinated human patients; format: in vivo; settings: human patients administered the vaccine
NK cells [10] = experiment: NK cell activation in mice; format: in vivo
[11] = tested on: metastatic HER2+ Breast Cancer; experiment: Clinical course of patient with metastatic HER2+ breast cancer (PET scans); format: in vivo, human; settings: one patient, on continued Vinorelbine and Trastuzumab; after initial increased PET uptake
HLA-DR = settings: cited from earlier work

## H-Trp-Arg-Tyr-Thr-Ala-Pro-Val-His-Leu-Gly-Asp-Gly-dAla-Lys-CHAla-Val-Ala-Ala-Trp-Thr-Leu-Lys-Ala-Ala-dAla-NH2 [P10s-PADRE]
[1]; 300 μg peptide per vaccination
  Immunized plasma binding to MAP (ELISA): Yes
[1]; 500 μg peptide per vaccination
  Immunized plasma binding to MAP (ELISA): Yes
[1]; 500 μg vs 300 μg, FIG. 10
  normalized endpoint titers, higher dose cohort vs lower dose cohort: higher normalized endpoint titers
[1]; Example 5 patient
  anti-peptide IgG persistence: remained high
  anti-peptide IgM persistence: returned back to the baseline by week 19
[1]; Example 5 patient, FIG. 13
  time course of anti-peptide IgM and IgG: peaked at week seven
[1]; all six subjects, FIG. 10
  IgG response to P10s MAP peptide form after immunization: persistent IgG response
[1]; all subjects of Example 3, FIGS. 4, 5
  IgG and IgM response to the vaccine: All subjects displayed an IgG and IgM response
[1]; subject #2 (300 μg), lowest of range
  increase of anti-peptide serum IgG normalized endpoint titer at week 7 compared to pre-immune: 31 folds
[1]; subjects #5 and #6 (500 μg), highest of range
  increase of anti-peptide serum IgG normalized endpoint titer at week 7 compared to pre-immune: 256 folds
[1]; three subjects evaluated further
  persistence of anti-P10s titer: starts to drop one year after the last immunization
MCF-10A cells
  toxicity of plasma: No toxicity
MCF-7 cells
  toxicity: no toxicity
ZR-75-1 cells
  toxicity: toxicity was observe
[2]; 300 μg peptide per vaccination
  Immunized plasma toxicity on cancer cells: Yes
[2]; 500 μg peptide per vaccination, subject #5: high background toxicity in preimmune plasma
  Immunized plasma toxicity on cancer cells: Yes (2×) and No†
MDA-MB-231 cells [3]
  effect of pre-incubation with post-immunization serum on docetaxel toxicity: sensitized tumor cells to docetaxel toxicity
HCC1954 cells [4]
  binding of vaccine-induced serum to cells: bound
HCC1954 cells [5]
  cell death on incubation with post-immunization serum: significant stimulation of cell death
HCC1954 cells [6]
  migration of cells: inhibited the migration
MDA-MB-231 cells [7]
  apoptosis: induced apoptosis
[8]; 300 μg peptide per vaccination
  Disease Progression: Stable; also recorded: Progressed
[8]; 500 μg peptide per vaccination
  Disease Progression: Stable
NK cells [9]
  NK cell activation: NK cells were activated
NK cells [10]
  NK cell activation: no NK activation
[11]
  lung lesions after vaccination: improvement of their lung lesions

## dAla-Lys-CHAla-Val-Ala-Ala-Trp-Thr-Leu-Lys-Ala-Ala-dAla [PADRE]
HLA-DR
  number of the 16 most common types of HLA-DR with which complexes are formed: at least 15
